# Laboratory results reported in patent publication US9274101B2 (BIOLOG, Inc., priority 2001, dated 2016).
# Read-outs that look alike come from different tables or passages of the source. Where a SMILES comes first, the peptide text is derived from it. Bridges are numbered along the chain shown (N, C = ends). [ ]: non-standard residue; d: D form. The star is where a group is joined. Ileψ(thiazoline)Cys = CC[C@H](C)[C@H](N)C1=N[C@H](C(=O)*)CS1; dOrn = NCCC[C@@H](N)C(=O)O
# Key:
# TK-1 cells = TK-1 cells in PM1 and PM2 plates, with or without 0.5 mM sodium pyruvate; format: cell-based, mouse
# Description: In this Example, methods for testing a murine T lymphoma cells (Butcher et al., Eur. J. Immunol., 10:556-561 [1980]), for their ability to use multiple carbon sources are described. The methods used to culture the TK-1 lymphoma cell line were similar to those used to culture HL-60 cells, as described in Example 27.
# TK-1 cells were grown in Falcon tissue culture flasks with vented tops. Culture medium was RPMI 1640 medium (Invitrogen 11875) with 4.5 g/L glucose, 2 mM L-glutamine, 1 mM sodium pyruvate, 0.1 mM nonessential amino acids (NEAA), 0.05 mM 2-mercaptoethanol (2ME), 2 g/L sodium bicarbonate, 5 mg/L phenol red, 50 U/mL penicillin, 50 μg/mL streptomycin, and 10% (v/v) heat inactivated fetal bovine serum (HI FBS, Invitrogen 16140). The cells were seeded at 3×10^5/mL, subcultured at 3 days after initiation of culture to 10^6 cells/mL and used 24 hours later. During all incubations, the cells were kept in an atmosphere of 5% CO2, 90-100% humidity, and 37° C.
# A viable cell count was obtained by trypan blue exclusion and an appropriate volume of the cell suspension was placed in a polypropylene centrifuge tube. The cells were washed in DPBS and then resuspended to two-thirds the final volume needed in Dulbecco ? s Modified Eagle ? s Medium (DME, Sigma D5030) with the supplements listed in Table 17, as well as 2-ME, sodium pyruvate and NEAA, and including 10% HI FBS, but without glucose, L-glutamine, sodium pyruvate, and phenol red. This medium is termed DME-RTK. An aliquot was counted by trypan blue exclusion and the cell density was adjusted to 1×10^6/mL. Fifty μL of DME-RTK were added to each well of the appropriate number of half area, 96-well plates (PM1 and PM2 MICROPLATE testing plates). The cells were divided into two lots and one lot received a 1/100 dilution of 100 mM sodium pyruvate (final concentration, 0.5 mM). Cells from both lots were plated at a final cell density of 5×10^4/well (50 μL/well). For each plate containing chemicals and cells, a second, control plate containing only chemicals was prepared. Plates were incubated at 5% CO2, 90-100% humidity, and 37° C. for 1 hour prior to addition of the MTS/MPMS colorimetric reagent (5 μL/well). The color formed in each well 24 hours after addition of the colorimetric reagent, was measured with a plate reader at 490 nm with a reference wavelength of 650 nm. OD values from the control plate were subtracted from the OD values obtained with cells prior to normalizing the data to % negative control.
# ten strains of E. coli = format: cell-based, Escherichia coli; further: key: +: indicates that the organism tested was capable of utilizing the carbon source listed; −: indicates that the organism tested was not capable of utilizing the carbon source listed; indicates weak positive reactions
# IMR-90 cells = assay: Testing of IMR-90 cells in PM1a testing plates; format: cell-based; details: for color of well: 24 hours of incubation
# Description: IMR-90 cells were cultured in DMEM in 150 mm diameter petri dishes to near confluence under suitable conditions (e.g., 5% CO2, at 37° C.). The cells were harvested from 19 petri dishes, using the standard trypsin-EDTA procedure to detach the cells (i.e., 5 minute treatment with trypsin-EDTA), pooled and centrifuged at 1000×g for 5 minutes at 2-8° C., and resuspended in HBSS without phenol red. The cells were again centrifuged and resuspended in 24 ml inoculating fluid (IF-h). The cell density as determined by measurement using a Coulter Counter was about 3,000,000 cells/ml. Two-fold serial dilutions were prepared using prewarmed inoculating fluid, by mixing 12 ml of cell suspension with 12 ml IF-h, to produce six suspensions having 3,000,000 cells/ml (undiluted), 1,500,000 cells/ml, 750,000 cells/ml, 375,000 cells/ml, 187,500 cells/ml, and 93,750 cells/ml. A “no cell” control was also prepared, using 12 ml inoculating fluid. Each of the cell suspensions was then immediately inoculated into a PM1a PHENOTYPE MICROARRAY testing panel (Biolog), with about 100 μl of suspension added per well.
# After approximately 4.5 hours of incubation at 37° C. in a CO2 incubator, the PHENOTYPE MICROARRAY testing panels were visually examined. […] The amount of background pink color was somewhat varied, depending upon the cell concentration. At the highest cell densities, there was a light pink color in all of the wells.
# HL-60 cells = HL-60 cells in PM1 and PM2 plates, MTS/MPMS color, % negative control; format: cell-based, human; details: label = PM1 well (row+column); MTS/MPMS color after 24 hour, OD 490 nm
# [1] = test system: Staphylococcus aureus (ATCC #29213); assay: MIC determination in MICROPLATE testing plates, saline vs GELRITE inoculant; format: cell-based; details: ATCC29213, 18 h, SF-P plates with resazurin, 35° C.
# Description: All three antimicrobials were obtained from Sigma. […] Kanamycin and tetracycline were dissolved in sterile water.
# E. coli MG1655 [2] = format: cell-based, Escherichia coli
# E. coli MG1655 [3] = assay: PM kinetic profiles of antimicrobials, S-O-R scoring and dendrogram; format: cell-based, Escherichia coli
# E. coli (MG1655) = assay: Sensitivity in ES1, ES2, ES3 MICROPLATE panels in the presence of vancomycin or sulfamethoxazole (synergy/antagonism); format: cell-based, Escherichia coli
# [4] = in the presence of 0.5 mM sodium pyruvate
# [5] = approximately 4.5 hours at 37° C.
# [6] = 1× level of each antimicrobial, 7 PMs, 48 hours
# [7] = in the presence of 10 μg/ml vancomycin
# [8] = in the presence of 235 μg/ml sulfamethoxazole
compound,measurement,setting,value
O=C(O)c1ccc(O)cc1 [4-hydroxy-benzoic acid],response of TK-1 cells,TK-1 cells; [4],gained responses
O=C[C@@H](O)[C@@H](O)[C@H](O)[C@H](O)CO [D-mannose],carbon source utilization,ten strains of E. coli,+
same,color of well,IMR-90 cells,distinctly darker clump of red cells
same,cellular morphology (microscopic),IMR-90 cells; [5],the cells looked healthy
O=C(CO)[C@H](O)[C@H](O)[C@H](O)CO [D-psicose],carbon source utilization,ten strains of E. coli,+
same,cellular morphology (microscopic),IMR-90 cells; [5],the cells looked healthy
same,color of well (carbon source oxidation),IMR-90 cells; [5],distinctly more pink than any other well
O=C(O)CC(CC(=O)O)C(=O)O [G2],Response of HL-60 Cells to the Carbon Sources of PM1,HL-60 cells,96 % of negative control
"NC[C@H]1O[C@H](O[C@H]2[C@H](O)[C@@H](O[C@H]3O[C@H](CO)[C@@H](O)[C@H](N)[C@H]3O)[C@H](N)C[C@@H]2N)[C@H](O)[C@@H](O)[C@@H]1O [Kanamycin, kanamycin]",MIC,[1]; diluent GELRITE (0.4%),16 to 32 µg/mL
same,MIC,[1]; diluent Saline,16 to 32 µg/mL
N[C@@H](CCO)C(=O)O [L-homoserine],"suitability as nitrogen source (growth, purple color)",E. coli MG1655 [2],not suitable
same,response of TK-1 cells,TK-1 cells; [4],lost responses
NCCC[C@H](N)C(=O)O [L-ornithine],"suitability as nitrogen source (growth, purple color)",E. coli MG1655 [2],not suitable
same,response of TK-1 cells,TK-1 cells; [4],lost responses
N[C@@H](Cc1ccccc1)C(=O)O [L-phenylalanine],"suitability as nitrogen source (growth, purple color)",E. coli MG1655 [2],not suitable
same,response of TK-1 cells,TK-1 cells; [4],gained responses
COC(=O)C(C)=O [Methyl pyruvate],carbon source utilization,ten strains of E. coli,+
same,cellular morphology (microscopic),IMR-90 cells; [5],the cells were rounded up and appeared to be stressed
"CN(C)[C@@H]1C(O)=C(C(N)=O)C(=O)[C@@]2(O)C(O)=C3C(=O)c4c(O)cccc4[C@@](C)(O)[C@H]3C[C@@H]12 [Tetracycline, tetracycline]",MIC,[1]; diluent GELRITE (0.4%),0.25 to 1 µg/mL
same,MIC,[1]; diluent Saline,0.25 to 2 µg/mL
OC[C@H]1O[C@@H](Oc2ccc(O)cc2)[C@H](O)[C@@H](O)[C@@H]1O [arbutin],response of TK-1 cells,TK-1 cells; [4],gained responses
CC[C@H](C)[C@H](N)C1=N[C@H](C(=O)N[C@@H](CC(C)C)C(=O)N[C@H](CCC(=O)O)C(=O)N[C@H](C(=O)N[C@H]2CCCCNC(=O)[C@H](CC(N)=O)NC(=O)[C@@H](CC(=O)O)NC(=O)[C@H](Cc3cnc[nH]3)NC(=O)[C@@H](Cc3ccccc3)NC(=O)[C@H]([C@@H](C)CC)NC(=O)[C@@H](CCCN)NC2=O)[C@@H](C)CC)CS1 [bacitracin] ({Ileψ(thiazoline)Cys}-L[dE]IK[dOrn]I[dF]H[dD]N; lactam 4-C),position in dendrogram of PM response profiles (FIG. 9),E. coli MG1655 [3]; [6],cluster
CO[C@@]1(NC(=O)Cc2cccs2)C(=O)N2C(C(=O)O)=C(COC(N)=O)CS[C@@H]21 [cefoxitin],change of sensitivity to the panel compound,E. coli (MG1655); [7],increased sensitivity
NC(=O)c1cc[n+](CC2=C(C(=O)O)N3C(=O)[C@@H](NC(=O)[C@@H](c4ccccc4)S(=O)(=O)[O-])[C@H]3SC2)cc1 [cefsulodin],change of sensitivity to the panel compound,E. coli (MG1655); [8],increased sensitivity
O=C(Cc1cccs1)N[C@@H]1C(=O)N2C(C(=O)[O-])=C(C[n+]3ccccc3)CS[C@H]12 [cephaloridine],change of sensitivity to the panel compound,E. coli (MG1655); [8],increased sensitivity
CC(=O)OCC1=C(C(=O)O)N2C(=O)[C@@H](NC(=O)Cc3cccs3)[C@H]2SC1 [cephalothin],change of sensitivity to the panel compound,E. coli (MG1655); [7],increased sensitivity
same,change of sensitivity to the panel compound,E. coli (MG1655); [8],increased sensitivity
same,position in dendrogram of PM response profiles (FIG. 9),E. coli MG1655 [3]; [6],cluster
C/C=C/C/C=C/CCC(=O)[C@H]1O[C@H]1C(N)=O [cerulenin],position in dendrogram of PM response profiles (FIG. 9),E. coli MG1655 [3]; [6],more closely resembled the multiple target antimicrobials
[Cl][Cr]([Cl])[Cl] [chromium chloride],change of sensitivity to the panel compound,E. coli (MG1655),increased sensitivity
[Cl][Co][Cl] [cobalt chloride],change of sensitivity to the panel compound,E. coli (MG1655),increased sensitivity
CC(=O)O[C@H]1C[C@@]2(C)[C@@H](C[C@@H](O)[C@H]3[C@@]4(C)CC[C@@H](O)[C@@H](C)[C@@H]4CC[C@@]32C)/C1=C(\CCC=C(C)C)C(=O)O [fusidic acid],change of sensitivity to the panel compound,E. coli (MG1655); [7],increased sensitivity
CCn1cc(C(=O)O)c(=O)c2ccc(C)nc21 [nalidixic acid],change of sensitivity to the panel compound,E. coli (MG1655),increased sensitivity
same,position in dendrogram of PM response profiles (FIG. 9),E. coli MG1655 [3],did not cluster with the other two DNA gyrase inhibiting chemicals
[Cl][Ni][Cl] [nickel chloride],change of sensitivity to the panel compound,E. coli (MG1655),increased sensitivity
CO[C@@H]1[C@@H](OC(N)=O)[C@@H](O)[C@H](Oc2ccc3c(O)c(NC(=O)c4ccc(O)c(CC=C(C)C)c4)c(=O)oc3c2C)OC1(C)C [novobiocin],change of sensitivity to the panel compound,E. coli (MG1655),increased resistance
same,change of sensitivity to the panel compound,E. coli (MG1655); [7],increased sensitivity
CCn1cc(C(=O)O)c(=O)c2cc3c(cc21)OCO3 [oxolinic acid],position in dendrogram of PM response profiles (FIG. 9),E. coli MG1655 [3]; [6],clustered
C[C@@H]1O[C@@H]1P(=O)(O)O [phosphomycin],position in dendrogram of PM response profiles (FIG. 9),E. coli MG1655 [3]; [6],cluster
O=C(O)CCCCCCCCC(=O)O [sebacic acid],response of TK-1 cells,TK-1 cells; [4],gained responses
O=C([O-])CC(O)C(=O)[O-].[Na+].[Na+] (stereo not shown) [sodium malate],cellular morphology (microscopic),IMR-90 cells,the cells were rounded up and appeared to be stressed
[H]/N=C(/N)N[C@H]1[C@H](O)[C@@H](O)[C@H](O[C@@H]2O[C@@H](C)[C@](O)(C=O)[C@H]2O[C@@H]2O[C@@H](CO)[C@H](O)[C@@H](O)[C@@H]2NC)[C@@H](N/C(N)=N\[H])[C@@H]1O [streptomycin],position in dendrogram of PM response profiles (FIG. 9),E. coli MG1655 [3]; [6],cluster
Nc1ccc(S(=O)(=O)Nc2nccs2)cc1 [sulfathiazole],position in dendrogram of PM response profiles (FIG. 9),E. coli MG1655 [3]; [6],more closely resembled the multiple target antimicrobials
COc1cc(Cc2cnc(N)nc2N)cc(OC)c1OC [trimethoprim],change of sensitivity to the panel compound,E. coli (MG1655); [7],increased sensitivity
same,change of sensitivity to the panel compound,E. coli (MG1655); [8],increased sensitivity
OC[C@H]1O[C@@H](O[C@H]2[C@H](O)[C@@H](O)[C@@H](O)O[C@@H]2CO)[C@H](O)[C@@H](O)[C@H]1O [α-D-lactose],carbon source utilization,ten strains of E. coli,+
same,color of well,IMR-90 cells,distinctly darker clump of red cells
CO[C@@H]1OC[C@@H](O)[C@H](O)[C@H]1O [β-methyl xyloside],response of TK-1 cells,TK-1 cells; [4],gained responses
O=C(O)CCCO [γ-hydroxybutyric acid],response of TK-1 cells,TK-1 cells,lost responses
coumermycin,position in dendrogram of PM response profiles (FIG. 9),E. coli MG1655 [3],clustered
pectin,response of TK-1 cells,TK-1 cells; [4],gained responses
polymyxin B,position in dendrogram of PM response profiles (FIG. 9),E. coli MG1655 [3],more closely resembled the multiple target antimicrobials
